The test system of this test is Cannabis plant. In words: Leaf ploidy by flow cytometry after colchicine treatment of haploid Cannabis plants. It is filed as in vivo. The following applies: for cells counted diploid / cells counted haploid / cells counted tetraploid: mixaploid (n+2n) state. An excerpt:
In some exemplary embodiments, a colchicine concentration (in water) of 0.25% may be used in addition to 0.5%, 1% and 5%. An issue arises with Cannabis in that not all the cells or tissues of a colchicine treated plant will double their ploidy.
On the multi-cellular level, doubling the ploidy of plants requires colchicine treatment applied to the shoot apical meristem (SAM). The SAM is composed of three distinct cell layers: L1 (outermost layer), L2 (middle layer), and L3 (innermost layer). Within the SAM, stem cell division takes place along the peripheral zone where new leaves emerge (Heidstra, 2014). The L1 gives rise to the epidermis or the protective covering of the leaf and stem, L2 to the sub epidermal photosynthetic mesophyll tissue, and L3 to the vascular tissue including the xylem and phloem. L1 and L2 divide anticlinally or […] to each other and thus remain distinct layers (Meyerowitz, 1997). On occasion, a cell in the SAM can divide periclinally whereby the daughter cell invades and acquires the identity one layer out and brings its ploidy with it. This organizational dynamic creates a stable yet mutable developmental path. In fact, the discovery of the stability of different layers within a meristem was discovered by creating a chimera using colchicine on Datura. The researchers were able to follow the developmental lineage of the differently sized cells due to the different ploidy levels within the SAM (Satina, 1940).

The mark [1] stands for this setting: cultivar Cryptic Lineage Legacy, FIG. 4C.
Setting [2] is: cultivar Herbaceous Sting, FIG. 2C.
[3] abbreviates: cultivar Operation Green Harvest Haze, FIG. 3C.
The mark [4] stands for this setting: cultivar Standing Liberty, FIG. 1C.

For `COc1cc2c(c(OC)c1OC)-c1ccc(OC)c(=O)cc1[C@@H](NC(C)=O)CC2` [Colchicine], where the note is “colchicine treated haploid Cannabis plants”, the “ploidy doubling of treated haploid plants” value was “very rarely, if ever, achieve a fully diploid state”. For the same compound, the cells counted diploid entry is, setting by setting: under setting [1], “approximately 20.65%”; under setting [2], “approximately 45.82%”; under setting [3], “approximately 22.8%”; under setting [4], “approximately 49%”. The cells counted haploid result was “approximately 17.65%” under setting [1], “approximately 12.15%” under setting [2], “approximately 32.4%” under setting [3] and “approximately 12.48%” under setting [4]. The cells counted tetraploid result runs as follows: under setting [1], “approximately 2.63%”; under setting [2], “approximately 3.93%”; under setting [3], “approximately 3.1%”; under setting [4], “approximately 4.39%”.
